Columns and labels:
Format in all cases: cell-based
hTAS2R4 = target: T1, hTAS2R4 (Homo sapiens, UniProt Q9NYW5); experiment: calcium imaging in transfected cells, […] GIV3727 against […] colchicine; settings: read-out: % activation in presence of GIV3727
T1 sequence (Q9NYW5 1-299): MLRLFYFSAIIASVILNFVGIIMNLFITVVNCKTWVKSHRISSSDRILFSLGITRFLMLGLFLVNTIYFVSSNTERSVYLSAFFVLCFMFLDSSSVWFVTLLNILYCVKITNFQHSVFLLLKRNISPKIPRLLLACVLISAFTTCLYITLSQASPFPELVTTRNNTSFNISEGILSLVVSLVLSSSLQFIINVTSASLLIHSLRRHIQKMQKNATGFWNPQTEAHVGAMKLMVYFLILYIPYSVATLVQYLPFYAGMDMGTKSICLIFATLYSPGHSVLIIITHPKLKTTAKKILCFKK

hTAS2R31 = target: T2, hTAS2R31 (Homo sapiens, UniProt P59538); experiment: FLIPR calcium imaging in HEK293 cells stably expressing hTAS2R31 and G16gust44
T2 sequence (P59538 1-309): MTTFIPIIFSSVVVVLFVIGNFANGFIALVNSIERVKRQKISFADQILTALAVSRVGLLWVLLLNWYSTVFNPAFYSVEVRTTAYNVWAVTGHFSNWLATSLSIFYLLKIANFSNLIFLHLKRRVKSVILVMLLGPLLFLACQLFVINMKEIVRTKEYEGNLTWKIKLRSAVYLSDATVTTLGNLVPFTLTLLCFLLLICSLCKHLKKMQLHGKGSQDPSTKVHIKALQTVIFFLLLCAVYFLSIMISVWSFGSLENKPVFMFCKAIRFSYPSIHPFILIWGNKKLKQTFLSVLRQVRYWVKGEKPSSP

hTAS2R43 [1] = target: T3, hTAS2R43 (Homo sapiens, UniProt P59537); experiment: calcium imaging in transfected cells, […] GIV3727 against […] aristolochic acid; settings: read-out: % activation in presence of GIV3727
T3 sequence (P59537 1-309): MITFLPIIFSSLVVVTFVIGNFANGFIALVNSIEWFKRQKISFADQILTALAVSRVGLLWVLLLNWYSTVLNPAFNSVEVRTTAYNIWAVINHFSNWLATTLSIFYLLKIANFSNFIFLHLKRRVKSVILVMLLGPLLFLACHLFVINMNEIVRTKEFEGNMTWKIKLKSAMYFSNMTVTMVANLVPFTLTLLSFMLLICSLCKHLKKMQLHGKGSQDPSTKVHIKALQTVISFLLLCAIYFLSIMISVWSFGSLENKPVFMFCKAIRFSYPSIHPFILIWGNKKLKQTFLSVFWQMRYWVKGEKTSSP

hTAS2R7 = target: T4, hTAS2R7 (Homo sapiens, UniProt Q9NYW3); experiment: calcium imaging in transfected cells, […] GIV3727 against […] cromolyn; settings: read-out: % activation in presence of GIV3727
T4 sequence (Q9NYW3 1-318): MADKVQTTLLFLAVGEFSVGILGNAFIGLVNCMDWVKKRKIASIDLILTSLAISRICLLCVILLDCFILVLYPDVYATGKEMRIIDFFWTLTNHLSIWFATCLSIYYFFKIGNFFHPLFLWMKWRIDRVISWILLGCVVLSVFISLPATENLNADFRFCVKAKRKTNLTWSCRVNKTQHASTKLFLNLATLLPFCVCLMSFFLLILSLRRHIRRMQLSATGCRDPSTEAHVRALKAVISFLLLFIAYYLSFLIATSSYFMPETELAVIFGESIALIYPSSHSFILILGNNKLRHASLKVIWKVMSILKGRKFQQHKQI

hTAS2R40 = hTAS2R40 (Homo sapiens, UniProt P59535); experiment: calcium imaging in transfected cells, […] GIV3727 against […] cohumulone; settings: read-out: % activation in presence of GIV3727
hTAS2R43 [2] = target: T3, hTAS2R43; experiment: calcium imaging in transfected cells, agonist at […]

hTAS2R40, sequence (P59535 whole entry): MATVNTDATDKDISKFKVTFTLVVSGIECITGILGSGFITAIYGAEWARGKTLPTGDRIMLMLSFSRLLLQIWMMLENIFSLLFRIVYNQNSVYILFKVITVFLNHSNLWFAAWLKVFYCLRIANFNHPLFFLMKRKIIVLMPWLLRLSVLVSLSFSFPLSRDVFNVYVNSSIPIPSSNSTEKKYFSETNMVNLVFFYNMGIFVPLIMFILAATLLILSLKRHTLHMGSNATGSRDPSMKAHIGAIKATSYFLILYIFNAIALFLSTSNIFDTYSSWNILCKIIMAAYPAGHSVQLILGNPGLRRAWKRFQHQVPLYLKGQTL

activity at 25 µM (hTAS2R4)	IC50 (hTAS2R31)	activity at 25 µM (hTAS2R43 [1])	activity at 25 µM (hTAS2R7)	activity at 25 µM (hTAS2R40)	SMILES	calcium imaging in transfected cells, agonist at 0.3 μM (hTAS2R43 [2])
45.8 ± 17.4%	6.4 ± 2.4 µM	2.5 ± 4.9%	47.8 ± 17%	3.2 ± 6.5%	CC1CCC(CCCC(=O)O)C1(C)C (stereo not drawn) [GIV3727, 4-(2,2,3-trimethylcyclopentyl)butanoic acid]	
					COc1cccc2c1cc([N+](=O)[O-])c1c(C(=O)O)cc3c(c12)OCO3 [aristolochic acid]	confers sensitivity to aristolochic acid, which activates hTAS2R43 but is inactive in the native hTAS2R46 (Figure S4)
